Source: patent US20160044914A1, “BIOCIDE COMPOSITIONS, METHODS OF MANUFACTURE, AND METHODS OF USE” (SEGETIS, INC., priority 2013, published 2016)
Entries after “also recorded” stand apart in the source; their conditions may differ.

Key:
[1] = Approximate solubility of technical grade active ingredients in the adjuvant solvents (shaker, iterative approach); conditions: for solubility in the three solvents, in words: Solvents I, II and III taken together
Protocol: Solubility studies were conducted using three materials to determine their ability to dissolve various biocide active ingredients: Solvent I-formula 1(a); Solvent II-formula 1(b); and Solvent III-formula 3(a). Active ingredients were chosen from three classes of biocides and primarily reflected difficult to dissolve actives. The following biocides were evaluated.
The approximate solubility of each technical grade active ingredient was determined in each of the solvents.
All examples were conducted on a 100 gram or 50 gram scale. The Dimethoate, 2,4-D, mesotrione and halosulfuron examples were conducted at 50 gram scale. All other examples were conducted on a 100 gram scale.
An amount of solvent was weighed into a 4 ounce jar (or 2 oz). An amount of active ingredient was weighed and added to the solvent in the jar. The jar was capped tightly and placed on a New Brunswick Scientific model C1 platform shaker. The samples were shaken at the 75% setting for 1 hour. During the mixing and after 1 hour each sample was examined and completeness of solubility noted. Using an iterative approach, an approximate solubility for each active ingredient in each of the solvents was determined. Each sample was allowed to sit undisturbed for 1 hour after mixing to determine if any crystallization would occur in those samples which dissolved.

[2] = cited from earlier work
[3] = Solvent I (formula 1(a)), % solids by weight, shaken 1 hour, minimum concentration tested 2.5%
[4] = Solvent II (formula 1(b)), % solids by weight, shaken 1 hour, minimum concentration tested 2.5%
[5] = Solvent III (formula 3(a)), % solids by weight, shaken 1 hour, minimum concentration tested 2.5%

Structure (SMILES) | approximate solubility range in Solvent I ([1]; 1 h) | approximate solubility range in Solvent II ([1]; 1 h) | approximate solubility range in Solvent III ([1]; 1 h) | solubility in the three solvents, in words [1] | approximate solubility range in Solvent I [1, 3] | approximate solubility range in Solvent II [1, 4] | also measured
OC(Cn1cncn1)(c1ccc(F)cc1)c1ccccc1F (stereo not drawn) [Flutrifol] | >2.5%; <5% | >2.5%; <5% | >5%; <20% |  |  |  | 
COCC(=O)N(c1c(C)cccc1C)C(C)C(=O)OC (stereo not drawn) [Metalaxyl] |  |  |  | greatest solubility |  |  | 
O=C(O)COc1ccc(Cl)cc1Cl [2,4-D] |  |  |  | did dissolve |  |  | 
CS(=O)(=O)c1ccc(C(=O)C2C(=O)CCCC2=O)c([N+](=O)[O-])c1 [Mesotrione] |  |  |  |  | <2.5% | <2.5% | solubility in Solvent III, in words ([1]; Solvent III): soluble; solubility in acetonitrile and acetone ([2]; acetonitrile and acetone): limited solubility
COc1c(Cl)ccc(Cl)c1C(=O)O [Dicamba] |  |  |  | greatest solubility; also recorded: did dissolve | <10% |  | 
CC1(C)[C@H](C(=O)O[C@H](C#N)c2cccc(Oc3ccccc3)c2)[C@@H]1/C=C(\Cl)C(F)(F)F [Gamma cyhalothrin] |  |  |  | greatest solubility | >80% | >80% | approximate solubility range in Solvent III [1, 5]: >80%
COc1cc(OC)nc(NC(=O)NS(=O)(=O)c2c(C(=O)O)c(Cl)nn2C)n1 [Halosulfuron] | <2.5% | <2.5% | >2.5%; <5% |  |  |  | 
CCOC(=O)CCC(C)=O [Solvent III] |  |  |  |  |  |  | solvating properties compared among the three solvents ([1]; in all but one active ingredient, for those active ingredients which were soluble): best solvating properties
CS(=O)(=O)NC(=O)c1cc(Oc2ccc(C(F)(F)F)cc2Cl)ccc1[N+](=O)[O-] [Fomesafen] | <2.5% | >2.5%; <10% | >5%; <10% |  |  |  | 
O=C(O)CNCP(=O)(O)O [Glyphosate] |  |  |  | not very soluble | <2.5% | <2.5% | approximate solubility range in Solvent III [1, 5]: <2.5%; solubility in most solvents, including water ([2]; most solvents, including water): not soluble to any great extent
